Calls of active or inactive are those of the source. The rule behind the calls is not given here.
Tested on: MOLT-4
Assay: Antiproliferative activity against wild type human MOLT-4 cells assessed as reduction in cell viability measured after 3 days by ATP-dependent luminescence assay
Type: functional, cell-based
Conditions: MOLT-4, 72 h

SMILES | EC50 [nM]
CCC(C)(CCNS(=O)(=O)Nc1ccc2c(c1)CN(C1CCC(=O)NC1=O)C2=O)c1ccccc1OC (stereo unspecified) | 420

Tested on: MV4-11
Assay: Antiproliferative activity against wild type human MV4-11 cells assessed as reduction in cell viability measured after 3 days by ATP-dependent luminescence assay
Type: functional, cell-based
Conditions: MV4-11, 72 h

SMILES | EC50 [nM]
CCC(C)(CCNS(=O)(=O)Nc1ccc2c(c1)CN(C1CCC(=O)NC1=O)C2=O)c1ccccc1OC (stereo unspecified) | 410

Tested on: BE(2)-C
Assay: Antiproliferative activity against wild type human BE2C cells assessed as reduction in cell viability measured after 3 days by ATP-dependent luminescence assay
Type: functional, cell-based
Conditions: 72 h

SMILES | EC50 [nM]
CCC(C)(CCNS(=O)(=O)Nc1ccc2c(c1)CN(C1CCC(=O)NC1=O)C2=O)c1ccccc1OC (stereo unspecified) | 42000

Molecular target: T1, Protein cereblon/Eukaryotic peptide chain release factor GTP-binding subunit ERF3A (Homo sapiens, UniProt Q96SW2+P15170)
Assay: Molecular glue activity at CRBN/HiBiT-tagged GSPT1 in human MOLT-4 cells assessed as induction of GSPT1 degradation measured after 3 hrs by immunoblot analysis
Type: cell-based
Conditions: not given
Target sequence in this assay (Q96SW2 whole entry): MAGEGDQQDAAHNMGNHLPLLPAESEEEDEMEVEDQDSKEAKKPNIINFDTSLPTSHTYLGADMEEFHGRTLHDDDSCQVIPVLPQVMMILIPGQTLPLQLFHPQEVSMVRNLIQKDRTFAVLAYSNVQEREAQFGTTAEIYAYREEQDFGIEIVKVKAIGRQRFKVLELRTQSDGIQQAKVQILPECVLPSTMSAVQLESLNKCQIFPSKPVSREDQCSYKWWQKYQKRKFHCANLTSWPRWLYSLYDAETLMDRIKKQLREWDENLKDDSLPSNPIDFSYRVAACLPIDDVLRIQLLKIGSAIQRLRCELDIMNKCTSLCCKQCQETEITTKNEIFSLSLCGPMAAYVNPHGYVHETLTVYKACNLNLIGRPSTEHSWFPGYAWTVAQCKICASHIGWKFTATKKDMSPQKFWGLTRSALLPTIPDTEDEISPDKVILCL
Target sequence in this assay (P15170 whole entry): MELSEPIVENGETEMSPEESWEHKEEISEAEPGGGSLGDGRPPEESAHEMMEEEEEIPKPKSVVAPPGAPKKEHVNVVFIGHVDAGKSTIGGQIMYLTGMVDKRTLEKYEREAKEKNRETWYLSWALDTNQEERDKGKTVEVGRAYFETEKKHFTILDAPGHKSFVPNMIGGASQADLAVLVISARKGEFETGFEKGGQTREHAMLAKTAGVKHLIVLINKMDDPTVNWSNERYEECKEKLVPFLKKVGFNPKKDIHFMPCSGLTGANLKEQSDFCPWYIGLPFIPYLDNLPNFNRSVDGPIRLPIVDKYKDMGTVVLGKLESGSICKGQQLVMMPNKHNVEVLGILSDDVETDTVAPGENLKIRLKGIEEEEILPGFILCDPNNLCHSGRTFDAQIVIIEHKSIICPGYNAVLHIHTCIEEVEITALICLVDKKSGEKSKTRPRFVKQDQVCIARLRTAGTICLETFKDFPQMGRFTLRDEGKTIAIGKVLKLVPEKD

SMILES | DC50 [nM]
CCC(C)(CCNS(=O)(=O)Nc1ccc2c(c1)CN(C1CCC(=O)NC1=O)C2=O)c1ccccc1OC (stereo unspecified) | 700

Molecular target: T1, Protein cereblon/Eukaryotic peptide chain release factor GTP-binding subunit ERF3A
Assay: Molecular glue activity at CRBN/HiBiT-tagged GSPT1 in wild type human MV4-11 cells assessed as induction of GSPT1 degradation measured after 3 hrs by immunoblot analysis
Type: cell-based
Conditions: not given
Target sequence in this assay (Q96SW2 whole entry): as the sequence (Q96SW2 whole entry) above
Target sequence in this assay (P15170 whole entry): as the sequence (P15170 whole entry) above

SMILES | DC50 [nM]
CCC(C)(CCNS(=O)(=O)Nc1ccc2c(c1)CN(C1CCC(=O)NC1=O)C2=O)c1ccccc1OC (stereo unspecified) | 700

Molecular target: T1, Protein cereblon/Eukaryotic peptide chain release factor GTP-binding subunit ERF3A
Assay: Molecular glue activity at CRBN/HiBiT-tagged GSPT1 in wild type human BE2C cells assessed as induction of GSPT1 degradation measured after 3 hrs by immunoblot analysis
Type: cell-based
Conditions: not given
Target sequence in this assay (Q96SW2 whole entry): as the sequence (Q96SW2 whole entry) above
Target sequence in this assay (P15170 whole entry): as the sequence (P15170 whole entry) above

SMILES | DC50 [nM]
CCC(C)(CCNS(=O)(=O)Nc1ccc2c(c1)CN(C1CCC(=O)NC1=O)C2=O)c1ccccc1OC (stereo unspecified) | 19000

Tested on: not listed separately
Assay: Selectivity index, ratio of EC50 for antiproliferative activity against human BE2C cells to EC50 for antiproliferative activity against human MOLT-4 cells
Type: functional
Conditions: not given

SMILES | Ratio EC50
CCC(C)(CCNS(=O)(=O)Nc1ccc2c(c1)CN(C1CCC(=O)NC1=O)C2=O)c1ccccc1OC (stereo unspecified) | ~100

Tested on: not listed separately
Assay: Selectivity index, ratio of EC50 for antiproliferative activity against human BE2C cells to EC50 for antiproliferative activity against human MV4-11 cells
Type: functional
Conditions: not given

SMILES | Ratio EC50
CCC(C)(CCNS(=O)(=O)Nc1ccc2c(c1)CN(C1CCC(=O)NC1=O)C2=O)c1ccccc1OC (stereo unspecified) | ~100

Tested on: MOLT-4
Assay: Antiproliferative activity against CRBN depleted human MOLT-4 cells assessed as reduction in cell viability measured after 3 days by ATP-dependent luminescence assay
Type: functional, cell-based
Conditions: time 3.0 day

SMILES | Activity
CCC(C)(CCNS(=O)(=O)Nc1ccc2c(c1)CN(C1CCC(=O)NC1=O)C2=O)c1ccccc1OC (stereo unspecified) | inactive

Tested on: MOLT-4
Assay: Antiproliferative activity against human MOLT-4 cells harboring GSPT1 G575N mutant assessed as reduction in cell viability measured after 3 days by ATP-dependent luminescence assay
Type: functional, cell-based
Conditions: time 3.0 day

SMILES | Activity
CCC(C)(CCNS(=O)(=O)Nc1ccc2c(c1)CN(C1CCC(=O)NC1=O)C2=O)c1ccccc1OC (stereo unspecified) | inactive

Tested on: MV4-11
Assay: Antiproliferative activity against CRBN depleted human MV4-11 cells assessed as reduction in cell viability measured after 3 days by ATP-dependent luminescence assay
Type: functional, cell-based
Conditions: time 3.0 day

SMILES | Activity
CCC(C)(CCNS(=O)(=O)Nc1ccc2c(c1)CN(C1CCC(=O)NC1=O)C2=O)c1ccccc1OC (stereo unspecified) | inactive

Tested on: MV4-11
Assay: Antiproliferative activity against human MV4-11 cells harboring GSPT1 G575N mutant assessed as reduction in cell viability measured after 3 days by ATP-dependent luminescence assay
Type: functional, cell-based
Conditions: time 3.0 day

SMILES | Activity
CCC(C)(CCNS(=O)(=O)Nc1ccc2c(c1)CN(C1CCC(=O)NC1=O)C2=O)c1ccccc1OC (stereo unspecified) | inactive

Tested on: BE(2)-C
Assay: Antiproliferative activity against CRBN depleted human BE2C cells assessed as reduction in cell viability measured after 3 days by ATP-dependent luminescence assay
Type: functional, cell-based
Conditions: time 3.0 day

SMILES | Activity
CCC(C)(CCNS(=O)(=O)Nc1ccc2c(c1)CN(C1CCC(=O)NC1=O)C2=O)c1ccccc1OC (stereo unspecified) | inactive

Tested on: BE(2)-C
Assay: Antiproliferative activity against human BE2C cells harboring GSPT1 G575N mutant assessed as reduction in cell viability measured after 3 days by ATP-dependent luminescence assay
Type: functional, cell-based
Conditions: time 3.0 day

SMILES | Activity
CCC(C)(CCNS(=O)(=O)Nc1ccc2c(c1)CN(C1CCC(=O)NC1=O)C2=O)c1ccccc1OC (stereo unspecified) | inactive

Molecular target: T1, Protein cereblon/Eukaryotic peptide chain release factor GTP-binding subunit ERF3A
Assay: Molecular glue activity at CRBN/GSPT1 in CRBN depleted human MOLT-4 cells assessed as induction of GSPT1 degradation at 3 uM measured after 3 hrs by immunoblot analysis
Type: cell-based
Conditions: not given
Target sequence in this assay (P15170 whole entry, looked up): as the sequence (P15170 whole entry) above
Target sequence in this assay (Q96SW2 whole entry, looked up): as the sequence (Q96SW2 whole entry) above

SMILES | Activity
CCC(C)(CCNS(=O)(=O)Nc1ccc2c(c1)CN(C1CCC(=O)NC1=O)C2=O)c1ccccc1OC (stereo unspecified) | inactive

Molecular target: T1, Protein cereblon/Eukaryotic peptide chain release factor GTP-binding subunit ERF3A
Assay: Molecular glue activity at CRBN/GSPT1 in human MOLT-4 cells harboring GSPT1 G575N mutant assessed as induction of GSPT1 degradation at 3 uM measured after 3 hrs by immunoblot analysis
Type: cell-based
Conditions: not given
Target sequence in this assay (P15170 whole entry, looked up): as the sequence (P15170 whole entry) above
Target sequence in this assay (Q96SW2 whole entry, looked up): as the sequence (Q96SW2 whole entry) above

SMILES | Activity
CCC(C)(CCNS(=O)(=O)Nc1ccc2c(c1)CN(C1CCC(=O)NC1=O)C2=O)c1ccccc1OC (stereo unspecified) | inactive

Molecular target: T1, Protein cereblon/Eukaryotic peptide chain release factor GTP-binding subunit ERF3A
Assay: Molecular glue activity at CRBN/GSPT1 in CRBN depleted human MV4-11 cells assessed as induction of GSPT1 degradation at 3 uM measured after 3 hrs by immunoblot analysis
Type: cell-based
Conditions: not given
Target sequence in this assay (P15170 whole entry, looked up): as the sequence (P15170 whole entry) above
Target sequence in this assay (Q96SW2 whole entry, looked up): as the sequence (Q96SW2 whole entry) above

SMILES | Activity
CCC(C)(CCNS(=O)(=O)Nc1ccc2c(c1)CN(C1CCC(=O)NC1=O)C2=O)c1ccccc1OC (stereo unspecified) | inactive

Molecular target: T1, Protein cereblon/Eukaryotic peptide chain release factor GTP-binding subunit ERF3A
Assay: Molecular glue activity at CRBN/GSPT1 in human MV4-11 cells harboring GSPT1 G575N mutant assessed as induction of GSPT1 degradation at 3 uM measured after 3 hrs by immunoblot analysis
Type: cell-based
Conditions: not given
Target sequence in this assay (P15170 whole entry, looked up): as the sequence (P15170 whole entry) above
Target sequence in this assay (Q96SW2 whole entry, looked up): as the sequence (Q96SW2 whole entry) above

SMILES | Activity
CCC(C)(CCNS(=O)(=O)Nc1ccc2c(c1)CN(C1CCC(=O)NC1=O)C2=O)c1ccccc1OC (stereo unspecified) | inactive

Molecular target: T1, Protein cereblon/Eukaryotic peptide chain release factor GTP-binding subunit ERF3A
Assay: Molecular glue activity at CRBN/GSPT1 in CRBN depleted human BE2C cells assessed as induction of GSPT1 degradation at 3 uM measured after 3 hrs by immunoblot analysis
Type: cell-based
Conditions: not given
Target sequence in this assay (P15170 whole entry, looked up): as the sequence (P15170 whole entry) above
Target sequence in this assay (Q96SW2 whole entry, looked up): as the sequence (Q96SW2 whole entry) above

SMILES | Activity
CCC(C)(CCNS(=O)(=O)Nc1ccc2c(c1)CN(C1CCC(=O)NC1=O)C2=O)c1ccccc1OC (stereo unspecified) | inactive

Molecular target: T1, Protein cereblon/Eukaryotic peptide chain release factor GTP-binding subunit ERF3A
Assay: Molecular glue activity at CRBN/GSPT1 in human BE2C cells harboring GSPT1 G575N mutant assessed as induction of GSPT1 degradation at 3 uM measured after 3 hrs by immunoblot analysis
Type: cell-based
Conditions: not given
Target sequence in this assay (P15170 whole entry, looked up): as the sequence (P15170 whole entry) above
Target sequence in this assay (Q96SW2 whole entry, looked up): as the sequence (Q96SW2 whole entry) above

SMILES | Activity
CCC(C)(CCNS(=O)(=O)Nc1ccc2c(c1)CN(C1CCC(=O)NC1=O)C2=O)c1ccccc1OC (stereo unspecified) | inactive

Molecular target: T1, Protein cereblon/Eukaryotic peptide chain release factor GTP-binding subunit ERF3A
Assay: Molecular glue activity at CRBN/HiBiT-tagged GSPT1 in human MOLT-4 cells assessed as induction of GSPT1 degradation at 3 uM pretreated with pomalidomide at 25 uM for 1 hr followed by compound treatment and measured after 3 hrs by immunoblot analysis
Type: cell-based
Conditions: not given

SMILES | Activity
CCC(C)(CCNS(=O)(=O)Nc1ccc2c(c1)CN(C1CCC(=O)NC1=O)C2=O)c1ccccc1OC (stereo unspecified) | inactive

Molecular target: T1, Protein cereblon/Eukaryotic peptide chain release factor GTP-binding subunit ERF3A
Assay: Molecular glue activity at CRBN/HiBiT-tagged GSPT1 in human MV4-11 cells assessed as induction of GSPT1 degradation at 3 uM pretreated with pomalidomide at 25 uM for 1 hr followed by compound treatment and measured after 3 hrs by immunoblot analysis
Type: cell-based
Conditions: not given

SMILES | Activity
CCC(C)(CCNS(=O)(=O)Nc1ccc2c(c1)CN(C1CCC(=O)NC1=O)C2=O)c1ccccc1OC (stereo unspecified) | inactive

Molecular target: T1, Protein cereblon/Eukaryotic peptide chain release factor GTP-binding subunit ERF3A
Assay: Molecular glue activity at CRBN/HiBiT-tagged GSPT1 in human BE2C cells assessed as induction of GSPT1 degradation at 3 uM pretreated with pomalidomide at 25 uM for 1 hr followed by compound treatment and measured after 3 hrs by immunoblot analysis
Type: cell-based
Conditions: not given

SMILES | Activity
CCC(C)(CCNS(=O)(=O)Nc1ccc2c(c1)CN(C1CCC(=O)NC1=O)C2=O)c1ccccc1OC (stereo unspecified) | inactive

Molecular target: T1, Protein cereblon/Eukaryotic peptide chain release factor GTP-binding subunit ERF3A
Assay: Molecular glue activity at CRBN/HiBiT-tagged GSPT1 in human MOLT-4 cells assessed as induction of GSPT1 degradation at 3 uM pretreated with MLN4924 at 1 uM for 1 hr followed by compound treatment and measured after 3 hrs by immunoblot analysis
Type: cell-based
Conditions: not given

SMILES | Activity
CCC(C)(CCNS(=O)(=O)Nc1ccc2c(c1)CN(C1CCC(=O)NC1=O)C2=O)c1ccccc1OC (stereo unspecified) | inactive

Molecular target: T1, Protein cereblon/Eukaryotic peptide chain release factor GTP-binding subunit ERF3A
Assay: Molecular glue activity at CRBN/HiBiT-tagged GSPT1 in human MV4-11 cells assessed as induction of GSPT1 degradation at 3 uM pretreated with MLN4924 at 1 uM for 1 hr followed by compound treatment and measured after 3 hrs by immunoblot analysis
Type: cell-based
Conditions: not given

SMILES | Activity
CCC(C)(CCNS(=O)(=O)Nc1ccc2c(c1)CN(C1CCC(=O)NC1=O)C2=O)c1ccccc1OC (stereo unspecified) | inactive

Molecular target: T1, Protein cereblon/Eukaryotic peptide chain release factor GTP-binding subunit ERF3A
Assay: Molecular glue activity at CRBN/HiBiT-tagged GSPT1 in human BE2C cells assessed as induction of GSPT1 degradation at 3 uM pretreated with MLN4924 at 1 uM for 1 hr followed by compound treatment and measured after 3 hrs by immunoblot analysis
Type: cell-based
Conditions: not given

SMILES | Activity
CCC(C)(CCNS(=O)(=O)Nc1ccc2c(c1)CN(C1CCC(=O)NC1=O)C2=O)c1ccccc1OC (stereo unspecified) | inactive

Molecular target: T1, Protein cereblon/Eukaryotic peptide chain release factor GTP-binding subunit ERF3A
Assay: Molecular glue activity at CRBN/HiBiT-tagged GSPT1 in human MOLT-4 cells assessed as induction of GSPT1 degradation at 3 uM pretreated with carfilzomib at 500 nM for 1 hr followed by compound treatment and measured after 3 hrs by immunoblot analysis
Type: cell-based
Conditions: not given

SMILES | Activity
CCC(C)(CCNS(=O)(=O)Nc1ccc2c(c1)CN(C1CCC(=O)NC1=O)C2=O)c1ccccc1OC (stereo unspecified) | inactive

Molecular target: T1, Protein cereblon/Eukaryotic peptide chain release factor GTP-binding subunit ERF3A
Assay: Molecular glue activity at CRBN/HiBiT-tagged GSPT1 in human MV4-11 cells assessed as induction of GSPT1 degradation at 3 uM pretreated with carfilzomib at 500 nM for 1 hr followed by compound treatment and measured after 3 hrs by immunoblot analysis
Type: cell-based
Conditions: not given

SMILES | Activity
CCC(C)(CCNS(=O)(=O)Nc1ccc2c(c1)CN(C1CCC(=O)NC1=O)C2=O)c1ccccc1OC (stereo unspecified) | inactive

Molecular target: T1, Protein cereblon/Eukaryotic peptide chain release factor GTP-binding subunit ERF3A
Assay: Molecular glue activity at CRBN/HiBiT-tagged GSPT1 in human BE2C cells assessed as induction of GSPT1 degradation at 3 uM pretreated with carfilzomib at 500 nM for 1 hr followed by compound treatment and measured after 3 hrs by immunoblot analysis
Type: cell-based
Conditions: not given

SMILES | Activity
CCC(C)(CCNS(=O)(=O)Nc1ccc2c(c1)CN(C1CCC(=O)NC1=O)C2=O)c1ccccc1OC (stereo unspecified) | inactive

Tested on: MV4-11
Assay: Downregulation of GSPT1 protein abundance in human MV4-11 cells at 3 uM measured after 3 hrs by proteomics analysis
Type: functional, cell-based
Conditions: not given

SMILES | Activity
CCC(C)(CCNS(=O)(=O)Nc1ccc2c(c1)CN(C1CCC(=O)NC1=O)C2=O)c1ccccc1OC (stereo unspecified) | Active

Tested on: MV4-11
Assay: Downregulation of GSPT2 protein abundance in human MV4-11 cells at 3 uM measured after 3 hrs by proteomics analysis
Type: functional, cell-based
Conditions: not given

SMILES | Activity
CCC(C)(CCNS(=O)(=O)Nc1ccc2c(c1)CN(C1CCC(=O)NC1=O)C2=O)c1ccccc1OC (stereo unspecified) | Active

— ChEMBL document CHEMBL5550120, “SuFEx-based chemical diversification for the systematic discovery of CRBN molecular glues” (Bioorg Med Chem, 2024)
